In patent US20240294533A1, “2-(HET)ARYL-SUBSTITUTED CONDENSED HETEROCYCLE DERIVATIVES AS PEST CONTROL AGENTS” (Bayer Aktiengesellschaft, priority 2021, published 2024):

Key:
Tetranychus urticae = Tetranychus urticae spray test, OP-resistant; format: in vivo; conditions: 500 g/ha, bean leaf discs, after 6 days
From the text: Tetranychus urticae—Spray Test, OP-Resistant
Solvent: 78.0 parts by weight of acetone • • 1.5 parts by weight of dimethylformamide
Emulsifier: alkylaryl polyglycol ether
An appropriate active ingredient formulation is produced by dissolving 1 part by weight of active ingredient with the stated parts by weight of solvent and making the solution up to the desired concentration with water containing an emulsifier concentration of 1000 ppm. Further test concentrations are produced by diluting the formulation with emulsifier-containing water.
Discs of bean leaves (Phaseolus vulgaris) infested with all stages of the greenhouse red spider mite (Tetranychus urticae) are sprayed with an active ingredient formulation of the desired concentration.
After 6 days, efficacy in % is determined. 100% means that all the spider mites have been killed; 0% means that no spider mites have been killed.

Diabrotica balteata = Diabrotica balteata spray test; format: in vivo; conditions: Diabrotica balteata, 168 h; 100 g/ha (=32 μg/cavity), wheat grains, after 7 days; read-out: efficacy
From the text: Diabrotica balteata—Spray Test Solvent: 78 parts by weight of acetone • • 1.5 parts by weight of dimethylformamide Emulsifier: alkylaryl polyglycol ether An appropriate active ingredient formulation is produced by dissolving 1 part by weight of active ingredient with the stated parts by weight of solvent and making the solution up to the desired concentration with water containing an emulsifier concentration of 1000 ppm. Further test concentrations are produced by diluting the formulation with emulsifier-containing water. Pre-swollen wheat grains (Triticum aestivum) are incubated in a multiwell plate filled with agar and a little water for one day (5 seed grains per cavity). The germinated wheat grains are sprayed with an active ingredient formulation of the desired concentration. Subsequently, each cavity is infected with 10-20 beetle larvae of Diabrotica balteata. After 7 days, efficacy in % is determined. 100% means that all wheat plants have grown as in the untreated, uninfected control; 0% means that no wheat plant has grown.

Spodoptera frugiperda [1] = assay: Spodoptera frugiperda spray test (cotton leaves); format: in vivo; conditions: 4 ppm, after 7 days
From the text: Spodoptera Frustiperda—Spray Test Solvent: 14 parts by weight of dimethylformamide Emulsifier: alkylaryl polyglycol ether An appropriate active ingredient formulation is produced by dissolving 1 part by weight of active ingredient with the stated parts by weight of solvent and making the solution up to the desired concentration with water containing an emulsifier concentration of 1000 ppm. Further test concentrations are produced by diluting the formulation with emulsifier-containing water. If the addition of ammonium salts or/and penetrants is required, these are each added in a concentration of 1000 ppm to the formulation solution. Cotton leaves (Gossypium hirsutum) are sprayed with an active ingredient formulation of the desired concentration and populated with caterpillars of the armyworm (Spodoptera frugiperda). After 7 days, the kill in % is determined. 100% means that all the caterpillars have been killed; 0% means that none of the caterpillars have been killed.

Nezara viridula = Nezara viridula spray test (plants sprayed, then infected); format: in vivo; conditions: 500 g/ha, barley plants, after 4 days
From the text: Nezara viridula—Spray Test Solvent: 78.0 parts by weight of acetone • • 1.5 parts by weight of dimethylformamide Emulsifier: alkylaryl polyglycol ether An appropriate active ingredient formulation is produced by dissolving 1 part by weight of active ingredient with the stated parts by weight of solvent and making the solution up to the desired concentration with water containing an emulsifier concentration of 1000 ppm. Further test concentrations are produced by diluting the formulation with emulsifier-containing water. Barley plants (Hordeum vulgare) are sprayed with an active ingredient formulation of the desired concentration and are infected with larvae of the Southern green shield bug (Nezara viridula). After 4 days, efficacy in % is determined. 100% means that all of the shield bugs have been killed; 0% means that none of the shield bugs have been killed.

[2] = log P by HPLC on reversed-phase column (C18); format: physicochemical; conditions: LC-UV, neutral range, ammonium acetate/acetonitrile, read-out: log P (neutral)
Procedure: log P Values The log P values were determined according to EEC Directive 79/831 Annex V.A8 by HPLC (high-performance liquid chromatography) on a reversed-phase column (C18) using the following methods: ^[a] […] Calibration was carried out using straight-chain alkan-2-ones (having 3 to 16 carbon atoms) with known log P values. The values between successive alkanones are determined by linear regression.

Meloidogyne incognita = Meloidogyne incognita test; format: in vivo; conditions: Meloidogyne incognita, 336 h, lettuce, gall formation after 14 days, read-out: nematicidal efficacy
From the text: Meloidogyne incognita Test Solvent: 125.0 parts by weight of acetone An appropriate active ingredient formulation is produced by mixing 1 part by weight of active ingredient with the stated amount of solvent and diluting the concentrate to the desired concentration with water. Vessels are filled with sand, active ingredient solution, an egg/larvae suspension of the southern root-knot nematode (Meloidogyne incognita) and lettuce seeds. The lettuce seeds germinate and the plants develop. The galls develop on the roots. After 14 days, the nematicidal efficacy in % is determined by the formation of galls. 100% means that no galls were found; 0% means that the number of galls on the treated plants corresponds to the untreated control.

Myzus persicae = Myzus persicae spray test; format: in vivo; conditions: 20 ppm, bell pepper plants, after 6 days
From the text: Myzus persicae—Spray Test Solvent: 14 parts by weight of dimethylformamide Emulsifier: alkylaryl polyglycol ether An appropriate active ingredient formulation is produced by dissolving 1 part by weight of active ingredient with the stated parts by weight of solvent and making the solution up to the desired concentration with water containing an emulsifier concentration of 1000 ppm. Further test concentrations are produced by diluting the formulation with emulsifier-containing water. If the addition of ammonium salts or/and penetrants is required, these are each added in a concentration of 1000 ppm to the formulation solution. Bell pepper plants (Capsicum annuum) severely infested with the green peach aphid (Myzus persicae) are treated by spraying with the active ingredient formulation in the desired concentration. After 6 days, the kill rate in % is determined. 100% means that all of the aphids have been killed; 0% means that none of the aphids have been killed.

Spodoptera frugiperda [3] = assay: Spodoptera frugiperda spray test (maize leaf discs); format: in vivo; conditions: Spodoptera frugiperda, foliar, 168 h, after 7 days, read-out: efficacy
From the text: Spodoptera Frusiperda—Spray Test Solvent: 78.0 parts by weight of acetone • • 1.5 parts by weight of dimethylformamide Emulsifier: alkylaryl polyglycol ether An appropriate active ingredient formulation is produced by dissolving 1 part by weight of active ingredient with the stated parts by weight of solvent and making the solution up to the desired concentration with water containing an emulsifier concentration of 1000 ppm. Further test concentrations are produced by diluting the formulation with emulsifier-containing water. Leaf discs of maize (Zea mays) are sprayed with an active ingredient formulation of the desired concentration and, after drying, populated with caterpillars of the fall armyworm (Spodoptera frugiperda). After 7 days, efficacy in % is determined. 100% means that all the caterpillars have been killed; 0% means that no caterpillar has been killed.

CCS(=O)(=O)c1ccc(-n2ncn(-c3ccc(C(=O)OC)cc3)c2=O)nc1-c1nc2cc(C(F)(F)C(F)(F)F)cnc2n1C [Example I-03]
efficacy (Tetranychus urticae): 90%
pest or weed control at 100 g/ha (Diabrotica balteata): 100%

CCS(=O)(=O)c1ccc(-n2ncn(-c3ccc(F)cc3)c2=O)nc1-c1nc2cc(C(F)(F)C(F)(F)F)cnc2n1C [Example I-02, 2-[5-Ethylsulfonyl-6-[3-methyl-6-(1,1,2,2,2-pentafluoroethyl)imidazo[4,5-b]pyridin-2-yl]-2-pyridyl]-4-(4-fluorophenyl)-1,2,4-triazol-3-one]
efficacy (kill) (Spodoptera frugiperda [1]): 100%
efficacy (Nezara viridula): 100%
chromatographic logP [2]: 3.53
pest or weed control at 20 ppm (Meloidogyne incognita): 100%
pest or weed control at 100 g/ha (Diabrotica balteata): 100%

CCS(=O)(=O)c1ccc(-n2ncn(-c3ccc(C#N)cc3)c2=O)nc1-c1nc2cc(C(F)(F)C(F)(F)F)nnc2n1C [Example I-06]
efficacy (kill rate) (Myzus persicae): 95%
efficacy (Nezara viridula): 100%
pest or weed control at 100 g/ha (Spodoptera frugiperda [3]): 100%
pest or weed control at 100 g/ha (Diabrotica balteata): 100%
